US20240226115A1, “AXL INHIBITOR COMPOUNDS” (ARCUS BIOSCIENCES, INC., priority 2021, published 2024)

Experiments:
recombinant human TYRO3 = molecular target: T1, recombinant human TYRO3 (Homo sapiens, UniProt Q06418); experiment: HTRF KinEASE-TK biochemical potency, TYRO3; conditions: 1 nM TYRO3, 700 μM ATP
T1 construct: purchased Invitrogen
T1 sequence (Q06418 41-890): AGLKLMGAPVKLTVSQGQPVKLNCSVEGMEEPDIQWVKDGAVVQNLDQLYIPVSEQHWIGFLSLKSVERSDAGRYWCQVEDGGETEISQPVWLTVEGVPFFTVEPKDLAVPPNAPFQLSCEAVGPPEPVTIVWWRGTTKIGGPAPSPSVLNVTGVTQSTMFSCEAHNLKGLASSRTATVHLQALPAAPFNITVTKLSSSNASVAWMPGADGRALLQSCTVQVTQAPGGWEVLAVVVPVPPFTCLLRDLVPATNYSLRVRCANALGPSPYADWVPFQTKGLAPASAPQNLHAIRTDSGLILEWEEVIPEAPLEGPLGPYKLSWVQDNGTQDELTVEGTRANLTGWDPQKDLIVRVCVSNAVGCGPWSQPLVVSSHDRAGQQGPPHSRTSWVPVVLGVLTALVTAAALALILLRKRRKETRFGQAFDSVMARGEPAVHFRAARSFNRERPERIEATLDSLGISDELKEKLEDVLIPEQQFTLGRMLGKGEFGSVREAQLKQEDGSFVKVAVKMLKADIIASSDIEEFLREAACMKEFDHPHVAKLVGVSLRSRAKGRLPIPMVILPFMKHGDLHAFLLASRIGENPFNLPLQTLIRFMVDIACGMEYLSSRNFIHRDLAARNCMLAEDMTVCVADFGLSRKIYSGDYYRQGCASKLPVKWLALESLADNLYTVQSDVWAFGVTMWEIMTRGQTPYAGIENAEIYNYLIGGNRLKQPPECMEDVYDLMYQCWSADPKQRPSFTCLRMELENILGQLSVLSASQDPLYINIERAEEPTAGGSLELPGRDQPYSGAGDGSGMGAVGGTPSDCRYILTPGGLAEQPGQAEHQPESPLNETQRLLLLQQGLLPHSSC
Description: (§1) Purified recombinant human AXL, TYRO3 and MER proteins were purchased from Invitrogen™. 10 nM AXL, 2 nM TYRO3 or MER were incubated with varying concentrations of compounds in 50 mM HEPES, pH 7.4, 10 mM MgCl2, 0.01% BSA, 1 mM DTT and 2% DMSO in a total volume of 20 μl in a 384-well microplate (Corning™ #3640) at RT for 1 h. The AXL, TYRO3 and MER enzymatic reaction was initiated by transferring 10 μl of enzyme and compound mixture into 10 μl of 1.6 μM TK Substrate-biotin (HTRF® KinEASE-TK kit, Cisbio) and 1400 μM ATP pre-incubated in 50 mM HEPES, pH 7.4, 10 mM MgCl2, 0.01% BSA, 1 mM DTT in a 384-well microplate (Corning™ #3640) at RT, giving the final reaction conditions: 5 nM AXL, 1 nM TYRO3 or MER, 800 nM TK Substrate-biotin and 700 μM ATP in 50 mM HEPES, pH 7.4, 10 mM MgCl2, 0.01% BSA, 1 mM DTT and 1% DMSO with varying concentrations of compounds. Following 2 h incubation at RT, the AXL, TYRO3 and MER enzymatic reaction was stopped by transfer of 10 μl of reaction into 10 μl of detection mix (400 nM Streptavidin-XL665, 200-fold dilution TK Antibody-Cryptate and detection buffer, HTRF® KinEASE-TK kit, Cisbio) in a white 384-well microplate (Perkin Elmer, OptiPlate 384). After 1 h incubation at RT, the plate was put into a plate reader (Evision) to read at 665/620 nm (acceptor/donor) for HTRF. The value of the DMSO blank (MIN inhibition=100% activity) was used as a negative control. The positive control was established by adding 5 μl of enzyme and DMSO mixture into 10 μl of detection mix followed by addition of 5 μl of TK Substrate-biotin and ATP mixture (MAX inhibition=0% activity). To calculate the percent activity, Equation 1 was used. Ratio665/620 is the value at a given compound concentration: […]

Axl [1] = molecular target: T2, Axl (Homo sapiens, UniProt P30530); experiment: HTRF KinEASE-TK biochemical potency, AXL; set-up: purchased Invitrogen; conditions: 5 nM AXL, 700 μM ATP
T2 sequence (P30530 26-894): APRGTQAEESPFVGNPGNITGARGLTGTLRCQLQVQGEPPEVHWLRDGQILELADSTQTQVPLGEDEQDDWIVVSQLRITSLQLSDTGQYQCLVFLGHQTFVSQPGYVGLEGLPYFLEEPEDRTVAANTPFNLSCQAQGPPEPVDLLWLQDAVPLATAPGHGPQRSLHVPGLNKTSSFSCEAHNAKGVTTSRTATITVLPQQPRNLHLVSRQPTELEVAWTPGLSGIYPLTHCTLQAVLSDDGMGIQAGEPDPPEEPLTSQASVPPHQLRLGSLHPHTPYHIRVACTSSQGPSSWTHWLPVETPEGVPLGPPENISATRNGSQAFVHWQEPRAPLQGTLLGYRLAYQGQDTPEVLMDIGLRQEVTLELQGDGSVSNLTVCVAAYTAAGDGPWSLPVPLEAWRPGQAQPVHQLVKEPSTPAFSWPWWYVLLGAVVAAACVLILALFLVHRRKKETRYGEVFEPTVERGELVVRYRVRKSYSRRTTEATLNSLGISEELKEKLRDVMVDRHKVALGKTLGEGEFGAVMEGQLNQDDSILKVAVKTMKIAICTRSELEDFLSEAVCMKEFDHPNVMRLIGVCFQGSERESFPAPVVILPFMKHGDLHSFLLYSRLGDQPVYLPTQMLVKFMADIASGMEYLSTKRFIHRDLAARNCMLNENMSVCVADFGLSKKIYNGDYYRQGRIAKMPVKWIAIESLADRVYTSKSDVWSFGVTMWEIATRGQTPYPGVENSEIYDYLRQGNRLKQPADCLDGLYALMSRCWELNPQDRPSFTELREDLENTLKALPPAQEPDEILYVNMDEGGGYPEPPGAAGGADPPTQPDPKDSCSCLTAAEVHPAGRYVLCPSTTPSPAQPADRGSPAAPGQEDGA
Description: as §1

Axl [2] = molecular target: T2, Axl; experiment: Axl NanoBRET intracellular kinase assay (Cell Binding); set-up: host or cells: HEK-293; conditions: HEK-293 cells transfected with Axl-NanoLuc fusion vector; displacement of K-5 NanoBRET tracer
Description: Axl NanoBRET™ intracellular kinase assay (Promega, N2540) was performed according to manufacturer's recommendation. In brief, HEK-293 cells are transiently transfected with Axl-NanoLuc fusion vector (Promega, NV1071), utilizing Fugene HD transfection reagent (Promega, E2311) a day before experiment following manufacturer's recommendation.
The day of the assay, the cells were collected and resuspended in Opti-MEM media (ThermoFisher, 31985070) at 2e5 cells/mL concentration. Testing compounds were serial diluted and dispensed into a white 384 well polystyrene plate at 200 nL in 100% DMSO. 40 μL of resuspended cells is then added per well for a final condition of 8K cells/well with 0.5% DMSO. After one-hour compound pre-incubation at 37° C. and 5% CO2, cells were further incubated with 0.35 μM K-5 NanoBRET tracer for two-hours at 37° C. and 5% CO2. […] of 3× substrate plus Inhibitor solution was prepared according to kits manual and added to the cells followed by a 30 second pulse centrifugation spin. The plate was then immediately read utilizing an Envision (Perkin Elmer) plate reader. The BRET signal is measured by taking the ratio of the emissions reading at 610 nm and 450 nm. Compound binding is based on the decrease BRET signal caused by the displacement of the K-5 tracer. […] IC50 value of compounds was determined by 4-parameter non-linear regression fitting of percent activity in GraphPad Prism software.

Row | SMILES | IC50 (recombinant human TYRO3) | IC50 (Axl [1]) | IC50 (Axl [2])
1 | CS(=O)(=O)N1CCc2ccc(-c3cnc4[nH]nc(-c5ccc6c(c5)OCCNC6=O)c4c3)cc2CC1 [Example 18, 8-[5-(3-Methanesulfonyl-2,3,4,5-tetrahydro-1H-3-benzazepin-7-yl)-1H-pyrazolo[3,4-b]pyridin-3-yl]-2,3,4,5-tetrahydro-1,4-benzoxazepin-5-one] | < 100 nM | < 100 nM | > 1000 nM
2 | FC1(F)Oc2ccc(-c3n[nH]c4ncc(-c5ccc6c(c5)CCN(C5CCCC5)CC6)cc34)cc2O1 [Example 14, 3-Cyclopentyl-7-(3-(2,2-difluorobenzo[d][1,3]dioxol-5-yl)-1H-pyrazolo[3,4-b]pyridin-5-yl)-2,3,4,5-tetrahydro-1H-benzo[d]azepine] |  | > 1000 nM | > 1000 nM
3 | O=C1NCCOc2cc(-c3n[nH]c4ncc(-c5cc(Cl)c6c(c5)CCN(C5CCCC5)C6)cc34)ccc21 [Example 8, 8-[5-(8-Chloro-2-cyclopentyl-1,2,3,4-tetrahydroisoquinolin-6-yl)-1H-pyrazolo[3,4-b]pyridin-3-yl]-2,3,4,5-tetrahydro-1,4-benzoxazepin-5-one] |  | 100 to 1000 nM | > 1000 nM
